One data set has as its system SK-N-BE(2) cell line. In words: MTT cell proliferation assay, SK-N-BE(2). It counts as cell-based. As for the experimental part:
In the present invention, the IC50 concentrations required to inhibit the activity of IMR-32 cell line and other neuroblastoma cell lines were determined for rilpivirine and other chemotherapeutic agents, and presented on the two-coordinate plot with x- and y-axes, forming the two points (IC50, rilpivirine, 0) and (0, IC50, chemotherapeutic agents). […] Moreover, the concentration or ratios of rilpivirine in combination with chemotherapeutic agents which provide the same inhibition effect are denoted as point (Crilpivirine, 50, Cchemotherapeutic agents, 50) in the same plot.
The combination index provides a quantitative measurement of the drug-drug interaction at the given effect level. The combination index (CI) is calculated by following equation: […]
The IMR-32, SK-N-SH, SH-SY5Y and SK-N-BE(2) tumor cell lines were purchased from American Type Culture Collection (ATCC, Manassas, VA). […] The cells were incubated for 72 hours and then cell proliferation was measured by 3-(4,5-dimethyl-2-thiazolyl)-2,5-diphenyl-2H-tetrazolium bromide (MTT) colorimetric assays (Sigma-Aldrich, Inc., St. Louis, MO). […] Absorbance of each well was measured with a spectrophotometer (uQuant SpectroMAX Gemini Dual-scanning microplate spectro, Bio-tek Instrument Inc.) at 550 nm. Growth inhibition was expressed as the ratio of the mean absorbance of treated cells relative to that of the control.
A general note: Tetrazolium assays rely on reduction of a dye to a coloured formazan, in cell work by metabolically active cells.

The next data set has as its system Jurkat. In words: EC50 in cancer cell line, rilpivirine alone. The data set is classed as cell-based. The note with it: Homo sapiens, Acute lymphoblastic leukemia.
In another data set the test system is CEM-C2. Nature of the data set: EC50 in cancer cell line, rilpivirine alone. The note with it: Homo sapiens, Acute lymphoblastic leukemia. The data set is classed as cell-based.
The test system of a further data set is J-RT3-T3-5. In words: EC50 in cancer cell line, rilpivirine alone. It counts as cell-based. The note with it: Homo sapiens, Acute T-cell leukemia.
For the next data set, the system named is SU-DHL-4. In words: EC50 in cancer cell line, rilpivirine alone. It counts as cell-based. The settings on record: Homo sapiens, B-cell non-Hodgkin lymphoma.
Another data set deals with BV-173. Nature of the data set: EC50 in cancer cell line, rilpivirine alone. The data set is classed as cell-based. The note with it: Homo sapiens, B-cell precursor leukemia (CML).
In another data set the test system is 647-V. In words: EC50 in cancer cell line, rilpivirine alone. It counts as cell-based. The note with it: Homo sapiens, Bladder.
The test system of another data set is Daudi. Nature of the data set: EC50 in cancer cell line, rilpivirine alone. It counts as cell-based. The settings on record: Homo sapiens, Burkitt's lymphoma.
A further data set relates to EB2. Nature of the data set: EC50 in cancer cell line, rilpivirine alone. It counts as cell-based. The settings on record: Homo sapiens, Burkitt's lymphoma.
The next data set relates to EM-2. In words: EC50 in cancer cell line, rilpivirine alone. The data set is classed as cell-based. The settings on record: Homo sapiens, Chronic myelogenous leukemia.
For another data set, the system named is U-87 MG. Nature of the data set: EC50 in cancer cell line, rilpivirine alone. It counts as cell-based. The settings on record: Homo sapiens, Glioblastoma/malignant glioma.
A further data set has as its system D283Med. In words: EC50 in cancer cell line, rilpivirine alone. It counts as cell-based. The note with it: Homo sapiens, D283 Med, Medulloblastoma.
The subject of the next data set is COR-L105. In words: EC50 in cancer cell line, rilpivirine alone. The settings on record: Homo sapiens, NSCLC. The data set is classed as cell-based.
The next data set deals with CHP-212. Nature of the data set: EC50 in cancer cell line, rilpivirine alone. It counts as cell-based. The settings on record: Homo sapiens, Neuroblastoma.
For a further data set, the system named is DMS273. In words: EC50 in cancer cell line, rilpivirine alone. It counts as cell-based. The settings on record: Homo sapiens, DMS-273, SCLC.
The test system of data set [1] is cleaved poly (ADP-ribose) polymerase (PARP) and phosphor-histone H2A.X (p-H2A.X). Nature of the data set: Expression of cleaved PARP and p-H2A.X in SK-N-SH. The note with it: increasing rilpivirine 0.12, 0.37, 1.11, 3.3, and 10 μM. It counts as cell-based.
Data set [2] is described as follows: Xenograft mouse model, body weight and signs of overt toxicity. The settings on record: rilpivirine 400 mg/kg once daily for 21 consecutive days, oral. It counts as in vivo, female BALB/c nude mice. On the procedure:
This study employed female BALB/c nude mice, aged 4-5 weeks, obtained from BioLasco Taiwan (under Charles River Laboratories Licensee). The animals were housed in individually ventilated cages (IVC, 36 Mini Isolator system). The allocation for 4 animals was 27×20×14 in cm. All the animals were maintained in a hygienic environment under controlled temperature (20-24° C.) and humidity (30%-70%) with 12-hour light/dark cycle. Free access to standard lab diet [MFG (Oriental Yeast Co., Ltd., Japan)] and autoclaved tap water were granted. All aspects of this work including housing, experimentation, and animal disposal were performed in general accordance with the “Guide for the Care and Use of Laboratory Animals: Eighth Edition” (National Academies Press, Washington, D.C., 2011) in our AAALAC-accredited laboratory animal facility. In addition, the animal care and use protocol was reviewed and approved by the IACUC at Pharmacology Discovery Services, Taiwan.
The IMR-32 tumor cell line was purchased from American Type Culture Collection (ATCC CCL-127, neuroblastoma) and cultured in Pharmacology Discovery Services, Taiwan. The cells were cultured in MEM medium containing 10% fetal bovine serum (FBS), 1 mM sodium pyruvate and 1 mM NEAA at 37° C. in 5% CO2 incubator. Female BALB/c nude mice were used as described in the preceding section. Viable IMR-32 cells (ATCC CCL-127) were subcutaneously (SC) implanted (1×10^7 cells in 1:1 matrigel/complete media mixture at 0.2 mL/mouse) into the right flank of female BALB/c nude mice. Forty-one days post tumor cell implantation (group mean tumor volumes ranging 128 mm^3-130 mm^3), all the animals were randomized into sixteen study groups, each containing eight animals, and dose administrations were initiated (denoted as Day 1). All the experiments were conducted using protocols and conditions approved by the institutional animal care and use committee. The tumor volume, body weight, mortality, and signs of overt toxicity were monitored and recorded twice weekly for 28 days.

Another data set has as its system pancreatic cancer cells. The settings on record: in vitro (PloS ONE 10(6):e0130277, 2015); cited from earlier work.

In general, IC50 refers to the concentration at which inhibition is half-maximal. A word on the EC50: it is the concentration at which the effect is half-maximal. Read a high EC50 as weaker potency.

Regarding `Cc1cc(/C=C/C#N)cc(C)c1Nc1ccnc(Nc2ccc(C#N)cc2)n1` [rilpivirine], the “growth of neuroblastoma cell line under rilpivirine treatment” value in the data set with SK-N-BE(2) cell line is given as “successfully inhibited”. In addition, the IC50 with SK-N-BE(2) cell line (Homo sapiens, SKNBE2, rilpivirine alone, 72 hours) was found to be 3.37 µM. The EC50 in the data set on Jurkat was 3.68 µM; in the data set with CEM-C2, 4.04 µM; with J-RT3-T3-5, 4.04 µM; in the data set with SU-DHL-4 it was 4.29 µM; with BV-173, 3.69 µM; in the data set with 647-V, 12.3 µM. Further, the EC50 in the data set with Daudi worked out at 4.01 µM; with EB2, 4.81 µM; in the data set on EM-2, 3.96 µM; with U-87 MG, 14.4 µM; in the data set on D283Med, 3.54 µM; in the data set with COR-L105 it was 3.11 µM. For the same compound, the values for the EC50 in the data set on CHP-212 and with DMS273 were 3.26 µM and 4.96 µM, respectively. Further, the “expression of cleaved PARP and p-H2A.X” value in data set [1] is reported as “increased gradually”. Moreover, the body weight loss entry in [2] is listed as “not associated with body weight loss”. In addition, in data set [2], the overt toxicities entry is on record as “no overt toxicities were observed”. In addition, the tolerability result in data set [2] was “well tolerated”. The “toxic potential against pancreatic cancer cells” value in the data set with pancreatic cancer cells is listed as “high toxic potential”.

Values taken from patent publication US12023334B2, “Composition including rilpivirine and method for treating tumors or cancer” (APTORUM THERAPEUTICS LIMITED, priority 2019, dated 2024).
